# Assay results from publication PMC6225165, “Design and Synthesis of Novel Dehydroepiandrosterone Analogues as Potent Antiproliferative Agents” (Molecules : A Journal of Synthetic Chemistry and Natural …, 2018).
# pIC50: −log10 of the molar value. Like-named read-outs stand apart in the source and are kept apart here.
# Columns and labels:
# A549 [1] = details: literature lead, Figure 1; cited from earlier work
# MCF-7 = experiment: MTT antiproliferative assay, MCF-7; type: cell-based, human; details: for inhibition at 100 µM / pIC50 / % Growth Inhibition at 100 μM MCF-7: 48 h, MTT; for inhibition at 100 µM: read-out: % Growth Inhibition at 100 μM MCF-7
# Description: (§1) The antiproliferative activity of the title compounds against the panel of six different human cancer cell lines, viz. lung (A549), cervix (HeLa), liver (HepG-2), liver (BEL7402), colorectal (HCT116), and breast (MCF-7) cell lines, was evaluated using a standard MTT-based colorimetric assay. All cell lines were obtained from the Key Laboratory of Natural Resources and Functional Molecules of the Changbai Mountain (Yanbian University) and maintained in Dulbecco’s modified Eagle’s medium (DMEM) and RPMI Media 1640 (RPMI1640), supplemented with 10% foetal bovine serum (FBS) at 37 °C in a humidified atmosphere containing 5% CO2.
# (§2) Cells were plated in 96-well plates at appropriate densities to ensure exponential growth throughout the experimental period (9 × 10^3 cells per well), and then allowed to adhere for 24 h. Cells were then treated for 48 h with each compound. After 48 h of incubation, 10 μL of MTT solution were added to each well to a final concentration of 2 mg·mL^−1. Plates were then incubated for a further 4 h. After incubation, the MTT solution was removed and 150 μL of DMSO were added to each well for coloration. The plates were shaken vigorously for 10 min at room temperature to ensure complete solubilisation. The optometric density (OD) was read on a microplate reader (EL × 800, BioTek, Highland Park, Winooski, VT, USA) at 492 nm, and the data were subsequently analysed. The percentage of cell growth inhibition was calculated from the following equation:Inhibitory rate (%) = [1 − (ODtreated − ODblank)/(ODcontrol − ODblank)] × 100.
# (§3) To obtain the antiproliferative activity of compounds 2a–2w, the compounds were selected in the same way with four serial concentrations (1, 10, 50 and 100 μM) of those compounds. The optometric density (OD) reading was then used to calculate the IC50.
# A549 [2] = experiment: MTT antiproliferative assay, A549; type: cell-based, human; details: for inhibition at 100 µM / pIC50 / % Growth Inhibition at 100 μM A549: 48 h, MTT; for inhibition at 100 µM: read-out: % Growth Inhibition at 100 μM A549
# Description: as §1, §2, §3
# Hela = experiment: MTT antiproliferative assay, Hela; type: cell-based, human; details: for pIC50 / inhibition at 100 µM / % Growth Inhibition at 100 μM Hela: 48 h, MTT; for inhibition at 100 µM: read-out: % Growth Inhibition at 100 μM Hela
# Description: as §1, §2, §3
# HepG-2 cells [3] = experiment: Apoptosis analysis by flow cytometry (annexin V-FITC/PI); type: cell-based, human; details: 48 h, control 13.65%
# Description: Apoptosis was detected using an Apoptosis Detection Kit (Invitrogen, Eugene, OR, USA). In brief, cells were cultured in […] (5.0 × 10^5 cells per well) and incubated at 37 °C for 12 h. Cells with exponential growth were then incubated with compound 2n at different concentrations (5, 10 and 20 μM). Following 48 h of incubation, the cells were collected, washed twice with PBS and once with 1binding buffer, and then stained with […] of annexin V-FITC and […] of PI (5 mg·mL^−1) in 1 × binding buffer for 30 min at 20 °C in the dark. Apoptotic cells were enumerated using a FACSCalibur flow cytometer with Cell Quest software (Becton–Dickinso, Franklin Lakes, NJ, USA).
# HepG-2 = experiment: MTT antiproliferative assay, HepG-2; type: cell-based, human; details: for inhibition at 100 µM / pIC50 / % Growth Inhibition at 100 μM HepG-2: 48 h, MTT; for inhibition at 100 µM: read-out: % Growth Inhibition at 100 μM HepG-2; for Selectivity Index HepG-2: IC50 on normal cells (L02)/IC50 on tumour cells
# Description: as §1, §2, §3
# HCT116 [4] = experiment: MTT antiproliferative assay, HCT116; type: cell-based, human; details: for inhibition at 100 µM / pIC50 / % Growth Inhibition at 100 μM HCT116: 48 h, MTT; for inhibition at 100 µM: read-out: % Growth Inhibition at 100 μM HCT116; for Selectivity Index HCT116: IC50 on normal cells (L02)/IC50 on tumour cells
# Description: as §1, §2, §3
# [5] = test system: human normal liver (L02) cells; experiment: MTT assay on normal cell line L02; type: cell-based; details: for inhibition at 100 µM / pIC50 / % Growth Inhibition at 100 μM L02: 48 h, MTT; for inhibition at 100 µM / % Growth Inhibition at 100 μM L02: normal cells; for inhibition at 100 µM: read-out: % Growth Inhibition at 100 μM L02; for pIC50: normal cell line
# BEL7402 = experiment: MTT antiproliferative assay, BEL7402; type: cell-based, human; details: for inhibition at 100 µM / pIC50 / % Growth Inhibition at 100 μM BEL7402: 48 h, MTT; for inhibition at 100 µM: read-out: % Growth Inhibition at 100 μM BEL7402
# Description: as §1, §2, §3
# HepG-2 cells [6] = experiment: Cell cycle analysis by flow cytometry (PI); type: cell-based, human; details: 48 h, control 11.47%
# Description: HepG-2 cells were plated in […] (5.0 × 10^5 cells per well) and incubated at 37 °C for 12 h. Exponentially growing cells were then incubated with compound 2n at different concentrations (5, 10 and 20 μM). After 48 h, untreated cells (control) or cells treated with compound 2n were centrifuged at 1000 rpm (177 g) for 10 min, and then fixed in 70% ethanol at −20 °C for at least 24 h. The cells were subsequently resuspended in phosphate-buffered saline (PBS) containing 0.1mg mL^−1 RNase A and 5 μg·mL^−1 propidium iodide (PI). The cellular DNA content for the cell cycle distribution analysis was measured by flow cytometry using a FACS Calibur flow cytometer with Cell Quest software (Becton-Dickinson, Franklin Lakes, NJ, USA), plotting at least 30,000 events per sample. The percentage of cells in the G1, S and G2 phases of the cell cycle were determined using the ModFit LT V4.0 software package (Verity Software, Topsham, ME, USA).
# KB = test system: KB; set-up: method as in PMID 23635011; details: literature lead, Figure 1; cited from earlier work
# AGS = details: literature lead, Figure 1; cited from earlier work
# HCT116 [7] = test system: HCT116; set-up: method as in PMID 26854375; details: literature lead, Figure 1; cited from earlier work
# [8] = IC50 on normal cells (L02)/IC50 on tumour cells
smiles,measurement,setting,value
COc1ccccc1-n1cc(COC(=O)C23CCC(C)C(C)C2C2=CCC4C5(C)CCC(=O)C(C)(C)C5CCC4(C)C2(C)CC3)nn1 (centres unmarked) [Compound A],pIC50,A549 [1],> 7.00
"CC12CCC3C(CC=C4CC(O)CCC43C)C1C/C(=C\c1cn(-c3ccc(I)cc3)nn1)C2=O (centres unmarked) [Compound 2n, (E)-3-hydroxy-16-((1-(4-iodophenyl)-1H-1,2,3-triazol-4-yl)methylene)-10,13-dimethyl-1,3,4,7,8,9,10,11,12,13,15,16-dodecahydro-2H-cyclopenta[a]phenanthren-17(14H)-one]",inhibition at 100 µM,"MCF-7; Homo sapiens, MCF7",81.3%
same,pIC50,"MCF-7; Homo sapiens, MCF7",5.04
same,Selectivity Index MCF-7,MCF-7; [8],>10.89
same,inhibition at 100 µM,"A549 [2]; Homo sapiens, A549",46.8%
same,pIC50,"A549 [2]; Homo sapiens, A549",< 4.00
same,pIC50,"Hela; Homo sapiens, HeLa",< 4.00
same,inhibition at 100 µM,Hela; Homo sapiens,17.3%
same,percentage of total apoptotic cells (right quadrants),"HepG-2 cells [3]; HepG-2, 5.0 µM",22.24%
same,percentage of total apoptotic cells (right quadrants),"HepG-2 cells [3]; HepG-2, 10.0 µM",27.24%
same,inhibition at 100 µM,"HepG-2; Homo sapiens, HepG2",83%
same,pIC50,"HepG-2; Homo sapiens, HepG2",5.04
same,Selectivity Index HepG-2,HepG-2,>10.99
same,inhibition at 100 µM,"HCT116 [4]; Homo sapiens, HCT-116",65.5%
same,pIC50,"HCT116 [4]; Homo sapiens, HCT-116",4.51
same,Selectivity Index HCT116,HCT116 [4],>3.22
same,inhibition at 100 µM,"[5]; Homo sapiens, L02",34.2%
same,pIC50,"[5]; Homo sapiens, L02",< 4.00
same,toxicity in human normal liver (L02) cells,[5]; in words,not toxic
same,inhibition at 100 µM,"BEL7402; Homo sapiens, Bel-7402",< 5%
same,pIC50,"BEL7402; Homo sapiens, Bel-7402",< 4.00
same,proportion of cells in the G2 phase,"HepG-2 cells [6]; HepG-2, 5.0 µM",11.14%
same,proportion of cells in the G2 phase,"HepG-2 cells [6]; HepG-2, 10.0 µM",0.41%
same,proportion of cells in the G2 phase,"HepG-2 cells [6]; HepG-2, 20.0 µM",0.0%
C[C@]12CC[C@H](O)CC1=CCC1C2CC[C@]2(C)C(=O)/C(=C/c3cccc(Cl)c3)CC12 (some centres unmarked) [Compound D],pIC50,KB,6.22
O=c1ccc2cc3ccoc3c(OCc3cn(-c4ccc(C(F)(F)F)cc4)nn3)c2o1 [Compound B],pIC50,AGS,5.12
"CC12CCC3C(CC=C4CC(O)CCC43C)C1C/C(=C\c1cn(-c3ccccc3F)nn1)C2=O (centres unmarked) [Compound 2b, (E)-16-((1-(2-fluorophenyl)-1H-1,2,3-triazol-4-yl)methylene)-3-hydroxy-10,13-dimethyl-1,3,4,7,8,9,10,11,12,13,15,16-dodecahydro-2H-cyclopenta[a]phenan-thren-17(14H)-one]",% Growth Inhibition at 100 μM MCF-7,MCF-7,NA (NA: antiproliferative activity <5%)
same,% Growth Inhibition at 100 μM A549,A549 [2],NA (NA: antiproliferative activity <5%)
same,% Growth Inhibition at 100 μM Hela,Hela,NA (NA: antiproliferative activity <5%)
same,% Growth Inhibition at 100 μM HepG-2,HepG-2,NA (NA: antiproliferative activity <5%)
same,% Growth Inhibition at 100 μM HCT116,HCT116 [4],NA (NA: antiproliferative activity <5%)
same,% Growth Inhibition at 100 μM L02,[5],NA (NA: antiproliferative activity <5%)
same,% Growth Inhibition at 100 μM BEL7402,BEL7402,NA (NA: antiproliferative activity <5%)
CC1CCC2(C(=O)O)CCC3(C)C(=CCC4C5(C)CC(=Cc6cc(O)ccc6O)C(=O)C(C)(C)C5CCC43C)C2C1C (centres unmarked) [Compound C],pIC50,HCT116 [7],> 7.00
"CC12CCC3C(CC=C4CC(O)CCC43C)C1C/C(=C\c1cn(-c3ccccc3)nn1)C2=O (centres unmarked) [Compound 2a, (E)-3-hydroxy-10,13-dimethyl-16-((1-phenyl-1H-1,2,3-triazol-4-yl)methylene)-1,3,4,7,8,9,10,11,12,13,15,16-dodecahydro-2H-cyclopenta[a]phenanthren-17(14H)-one]",inhibition at 100 µM,"MCF-7; Homo sapiens, MCF7",< 5%
same,inhibition at 100 µM,"A549 [2]; Homo sapiens, A549",30.3%
same,inhibition at 100 µM,Hela; Homo sapiens,< 5%
same,inhibition at 100 µM,"HepG-2; Homo sapiens, HepG2",10.2%
same,inhibition at 100 µM,"HCT116 [4]; Homo sapiens, HCT-116",11.1%
same,inhibition at 100 µM,"[5]; Homo sapiens, L02",22.3%
same,inhibition at 100 µM,"BEL7402; Homo sapiens, Bel-7402",12.9%
"CC12CCC3C(CC=C4CC(O)CCC43C)C1C/C(=C\c1cn(-c3cccc(F)c3)nn1)C2=O (centres unmarked) [Compound 2c, (E)-16-((1-(3-fluorophenyl)-1H-1,2,3-triazol-4-yl)methylene)-3-hydroxy-10,13-dimethyl-1,3,4,7,8,9,10,11,12,13,15,16-dodecahydro-2H-cyclopenta[a]phenanthren-17(14H)-one]",inhibition at 100 µM,"MCF-7; Homo sapiens, MCF7",31.2%
same,pIC50,"MCF-7; Homo sapiens, MCF7",< 4.00
same,inhibition at 100 µM,"A549 [2]; Homo sapiens, A549",60.5%
same,pIC50,"A549 [2]; Homo sapiens, A549",4.29
same,Selectivity Index A549,A549 [2]; [8],1.61
same,pIC50,"Hela; Homo sapiens, HeLa",4.08
same,inhibition at 100 µM,Hela; Homo sapiens,55.2%
same,Selectivity Index Hela,Hela; [8],0.99
same,inhibition at 100 µM,"HepG-2; Homo sapiens, HepG2",78.8%
same,pIC50,"HepG-2; Homo sapiens, HepG2",4.96
same,Selectivity Index HepG-2,HepG-2,7.53
same,inhibition at 100 µM,"HCT116 [4]; Homo sapiens, HCT-116",78.3%
same,pIC50,"HCT116 [4]; Homo sapiens, HCT-116",4.58
same,Selectivity Index HCT116,HCT116 [4],3.17
same,inhibition at 100 µM,"[5]; Homo sapiens, L02",79.3%
same,pIC50,"[5]; Homo sapiens, L02",4.08
same,inhibition at 100 µM,"BEL7402; Homo sapiens, Bel-7402",66.7%
same,pIC50,"BEL7402; Homo sapiens, Bel-7402",4.16
same,Selectivity Index BEL7402,BEL7402; [8],1.21
"CC12CCC3C(CC=C4CC(O)CCC43C)C1C/C(=C\c1cn(-c3ccc(Br)cc3)nn1)C2=O (centres unmarked) [Compound 2k, (E)-16-((1-(4-bromophenyl)-1H-1,2,3-triazol-4-yl)methylene)-3-hydroxy-10,13-di-methyl-1,3,4,7,8,9,10,11,12,13,15,16-dodecahydro-2H-cyclopenta[a]phenan-thren-17(14H)-one]",% Growth Inhibition at 100 μM MCF-7,MCF-7,45.5%
same,pIC50,MCF-7,< 4.00
same,% Growth Inhibition at 100 μM A549,A549 [2],47.8%
same,pIC50,A549 [2],< 4.00
same,% Growth Inhibition at 100 μM Hela,Hela,30.7%
same,pIC50,Hela,< 4.00
same,% Growth Inhibition at 100 μM HepG-2,HepG-2,66.4%
same,pIC50,HepG-2,4.43
same,% Growth Inhibition at 100 μM HCT116,HCT116 [4],NA (NA: antiproliferative activity <5%)
same,pIC50,HCT116 [4],< 4.00
same,% Growth Inhibition at 100 μM L02,[5],11.1%
same,pIC50,[5],< 4.00
same,% Growth Inhibition at 100 μM BEL7402,BEL7402,NA (NA: antiproliferative activity <5%)
same,pIC50,BEL7402,< 4.00
